Test results published in patent US9545386B2, “Methods of treating infectious diseases” (SLIPPERY ROCK UNIVERSITY FOUNDATION, INC., priority 2007, dated 2017).

Assays:
Assay type in all cases: cell-based
[1] = system: Haemonchus contortus infective larvae; assay: In vitro bioassay of infective larvae, immobilization and lethal doses (eosin, Probit); details: for 24 hr ID50 ± 95% confidence intervals / 48 hr ID50 ± 95% confidence intervals: immobilize 50%; for 24 hr ID50 ± 95% confidence intervals / 24 hr ID90 ± 95% confidence intervals / 24 hr LD50 ± 95% confidence intervals / 24 hr LD90 ± 95% confidence intervals: 24 hr in vitro; for 48 hr ID50 ± 95% confidence intervals / 48 hr ID90 ± 95% confidence intervals / 48 hr LD50 ± 95% confidence intervals / 48 hr LD90 ± 95% confidence intervals: 48 hr in vitro; for 24 hr ID90 ± 95% confidence intervals / 48 hr ID90 ± 95% confidence intervals: immobilize 90%; for 24 hr LD50 ± 95% confidence intervals / 48 hr LD50 ± 95% confidence intervals: kill 50%; for 24 hr LD90 ± 95% confidence intervals / 48 hr LD90 ± 95% confidence intervals: kill 90%
Method: (§1) Strongyloides stercoralis infective larvae were harvested from charcoal coprocultures in nematode saline solution. The larvae were supplied by the Parasitology Laboratory, Department of Pathobiology, University of Pennsylvania. The strain of larvae was a human strain of the parasitic nematode that had been maintained for over ten years in canines by daily prednisolone treatment (2 mg/kg per os, once daily. Parastrongyloides trichosuri and Ancylostoma caninum infective larvae were also supplied by the same source as for S. stercoralis. Haemonchus contortus infective larvae were harvested from charcoal coprocultures in nematode saline solution prepared from infected sheep feces obtained from Merck Parasites Laboratory.
(§2) The 24 hr 50% and 90% immobilization doses (ID50 and ID90), and 50% and 90% lethal doses (LD50 and LD90) of eryngial (mg/ml) were investigated in vitro using infective larvae of all four parasitic nematodes. Each species was exposed to a range of eryngial dilutions by adding known volumes of a homogeneous ‘wormy’ solution (infective larvae in nematode saline solution) to known volumes of an eryngial stock suspension (10 mg/ml of nematode saline solution). Each dilution, including the control (0 mg/ml eryngial), was prepared in triplicate and also contained eosin (0.01%, w/v), which was used as an indicator of mortality, and Triton X-100 (1.0%, v/v).
(§3) Using S. stercoralis, P. trichosuri, H. contortus and A. caninum infective larvae, eryngial dilutions, excluding the controls, ranged from 0.05 to 1.15 mg/ml; 0.01 to 1.0 mg/ml; 0.5 to 2.0 mg/ml; and 0.8 to 3.0 mg/ml, respectively. Sub-sample (10 μl) counts of larvae that were mobile, immobile but not stained and stained, were done at the start of each bioassay and at 24 hr intervals for two days. Each sub-sample contained approximately 50 infective larvae.
(§4) The 48-hr immobilization doses (ID50 and ID90) and lethal doses (LD50 and LD90) of eryngial and ivermectin also were investigated, using S. stercoralis and H. contortus infective larvae. Each bioassay was conducted as described hereinabove. Using S. stercoralis and H. contortus infective larvae, ivermectin dilutions (not including the controls) ranged from 0.03 to 0.3 mg/ml and from 0.009 to 0.1 mg/ml, respectively.
(§5) Probit analysis was used to determine 24 hr and 48 hr immobilization and lethal doses for eryngial and ivermectin, respectively.

[2] = system: Strongyloides stercoralis infective larvae; assay: as above; details: for 24 hr ID50 ± 95% confidence intervals / 48 hr ID50 ± 95% confidence intervals: immobilize 50%; for 24 hr ID50 ± 95% confidence intervals / 24 hr ID90 ± 95% confidence intervals / 24 hr LD50 ± 95% confidence intervals / 24 hr LD90 ± 95% confidence intervals: 24 hr in vitro; for 48 hr ID50 ± 95% confidence intervals / 48 hr ID90 ± 95% confidence intervals / 48 hr LD50 ± 95% confidence intervals / 48 hr LD90 ± 95% confidence intervals: 48 hr in vitro; for 24 hr ID90 ± 95% confidence intervals / 48 hr ID90 ± 95% confidence intervals: immobilize 90%; for 24 hr LD50 ± 95% confidence intervals / 48 hr LD50 ± 95% confidence intervals: kill 50%; for 24 hr LD90 ± 95% confidence intervals / 48 hr LD90 ± 95% confidence intervals: kill 90%
Method: as §1, §2, §3, §4, §5

[3] = system: Trypanosoma mega trypomastigotes; assay: In vitro antitrypanosomal bioassay, trypomastigote counts (Probit LC50/LC95); details: T. mega; for 24 hr LC95 ± 95% confidence intervals: 24 hr in vitro
Method: (§6) In this study, 75 μl of Locke's nematode saline (L.N.S.) solution with approximately 1.0×10^5 trypomastigotes/ml of each organism were placed in 15 wells of a cell culture plate. For T. mega, T. conorhini and T. avium, stock concentrations of eryngial (1, 2, 3 and 4 mg/ml) with 0.04% (w/v) Triton X-100 were prepared in L.N.S. Triton X-100 acted as an emulsifier for eryngial. Triplicate samples of each eryngial concentration were prepared by adding 75 μl of the stock to the wells with trypomastigotes of each species. The number of trypanosomes in each well therefore approximated 5×10^4/ml, while final concentrations of eryngial in the wells were 0.5, 1.0, 1.5, and 2.0 mg/ml, respectively. Each sample also had 0.02% Trition X-100. The control samples had no eryngial. The number of trypomastigotes that were present in 20 μl sub-samples of each well was determined using a hemacytometer at 0, 24 and 48 hr. A count of the trypanosomes in each grid was recorded and the average number of organisms per milliliter was determined. The above procedure was repeated to determine the effect of eryngial on T. rangeli. However, the final concentration of eryngial, the test compound, ranged from 0.15 to 0.9 mg/ml.

[4] = system: Trypanosoma rangeli trypomastigotes; assay: as above; details: T. rangeli; for 24 hr LC95 ± 95% confidence intervals: 24 hr in vitro, 0.02% Triton X-100; for 48 hr LC95 ± 95% confidence intervals: 48 hr in vitro
Method: as §6

[5] = system: Trypanosoma avium trypomastigotes; assay: as above; details: T. avium
Method: as §6

[6] = system: Trypanosoma conorhini trypomastigotes; assay: as above; details: T. conorhini; for 24 hr LC95 ± 95% confidence intervals: 24 hr in vitro
Method: as §6

[7] = H. contortus infective larvae, 48 hr, eryngial vs ivermectin
[8] = H. contortus infective larvae, listed as eryngial
[9] = S. stercoralis infective larvae
[10] = S. stercoralis infective larvae, listed as eryngial
[11] = S. stercoralis, eryngial vs ivermectin
[12] = 48 hr in vitro, listed as eryngial

CCCCCCCCC/C=C/C=O [Eryngial, trans-2-dodecenal]
increase in the dose required to immobilize 50% ([1]; 24 hr ID50, H. contortus relative to P. trichosuri): 10.2 fold
times more effective than ivermectin at eliciting 90% mortality [1, 7]: 2.9 times
times more potent at killing 50% than ivermectin [1, 7]: 3.7 times
24 hr ID50 ± 95% confidence intervals ([1]; H. contortus infective larvae): 0.132 (0.078-0.186) mg/ml
24 hr ID50 ± 95% confidence intervals [1, 8]: 0.132 mg/mL
48 hr ID50 ± 95% confidence intervals ([1]; H. contortus infective larvae): 0.313 (0.143-0.453) mg/ml
48 hr ID50 ± 95% confidence intervals [1, 8]: 0.313 mg/mL
24 hr ID90 ± 95% confidence intervals ([1]; H. contortus infective larvae): 0.782 (0.641-0.998) mg/ml
24 hr ID90 ± 95% confidence intervals [1, 8]: 0.782 mg/mL
48 hr ID90 ± 95% confidence intervals ([1]; H. contortus infective larvae): 0.761 (0.530-1.488) mg/ml
48 hr ID90 ± 95% confidence intervals [1, 8]: 0.761 mg/mL
24 hr LD50 ± 95% confidence intervals ([1]; H. contortus infective larvae): 1.793 (1.516-2.558) mg/ml
24 hr LD50 ± 95% confidence intervals [1, 8]: 1.793 mg/mL
48 hr LD50 ± 95% confidence intervals ([1]; H. contortus infective larvae): 1.361 (1.284-1.449) mg/ml
48 hr LD50 ± 95% confidence intervals [1, 8]: 1.361 mg/mL
24 hr LD90 ± 95% confidence intervals ([1]; H. contortus infective larvae): 2.765 (2.010-5.915) mg/ml
24 hr LD90 ± 95% confidence intervals [1, 8]: 2.765 mg/mL
48 hr LD90 ± 95% confidence intervals ([1]; H. contortus infective larvae): 2.360 (2.109-2.768) mg/ml
48 hr LD90 ± 95% confidence intervals [1, 8]: 2.360 mg/mL
decrease in the 50% immobilization dose ([2]; 24 hr ID50, S. stercoralis compared with A. caninum): 9.4 fold
decrease in the 50% immobilization dose ([2]; 24 hr ID50, S. stercoralis compared with H. contortus): 2.3 fold
less sensitive to eryngial than P. trichosuri ([2]; 24 hr ID50, S. stercoralis relative to P. trichosuri): 4.5 fold
increased sensitivity to eryngial (90% immobilization) ([2]; 24 hr ID90, S. stercoralis over A. caninum): 10.7 fold
increase in sensitivity to eryngial (50% mortality doses) ([2]; 24 hr LD50, S. stercoralis than A. caninum): 7.2 fold
increase in sensitivity to eryngial (50% mortality doses) ([2]; 24 hr LD50, S. stercoralis than H. contortus): 21.1 fold
increased sensitivity to eryngial (90% mortality doses) ([2]; 24 hr LD90, S. stercoralis over A. caninum): 8.2 fold
increased sensitivity to eryngial (90% mortality doses) ([2]; 24 hr LD90, S. stercoralis over H. contortus): 19.3
times more effective than ivermectin (48 hr ID90) ([2]; S. stercoralis L3 larvae, eryngial vs ivermectin): 3.9 times
times more potent than ivermectin (48 hr ID50) ([2]; S. stercoralis infective larvae, eryngial vs ivermectin): 2.5 times
24 hr ID50 ± 95% confidence intervals [2, 9]: 0.058 (0.054-0.061) mg/ml
24 hr ID50 ± 95% confidence intervals [2, 10]: 0.058 mg/mL
48 hr ID50 ± 95% confidence intervals [2, 9]: 0.054 (0.047-0.061) mg/ml
48 hr ID50 ± 95% confidence intervals [2, 10]: 0.054 mg/mL
24 hr ID90 ± 95% confidence intervals [2, 9]: 0.081 (0.076-0.088) mg/ml
24 hr ID90 ± 95% confidence intervals [2, 10]: 0.081 mg/mL
48 hr ID90 ± 95% confidence intervals [2, 9]: 0.077 (0.066-0.101) mg/ml
48 hr ID90 ± 95% confidence intervals [2, 10]: 0.077 mg/mL
24 hr LD50 ± 95% confidence intervals [2, 9]: 0.085 (0.073-0.102) mg/ml
24 hr LD50 ± 95% confidence intervals [2, 10]: 0.085 mg/mL
48 hr LD50 ± 95% confidence intervals [2, 9]: 0.069 (0.058-0.085) mg/ml
48 hr LD50 ± 95% confidence intervals [2, 10]: 0.069 mg/mL
24 hr LD90 ± 95% confidence intervals [2, 9]: 0.143 (0.115-0.245) mg/ml
24 hr LD90 ± 95% confidence intervals [2, 10]: 0.143 mg/mL
48 hr LD90 ± 95% confidence intervals [2, 9]: 0.105 (0.085-0.174) mg/ml
48 hr LD90 ± 95% confidence intervals [2, 10]: 0.105 mg/mL
times more effective than ivermectin (48 hr LD50) [2, 11]: 4.4 times
times more potent than ivermectin (48 hr LD90) [2, 11]: 9.9 times
24 hr LC95 ± 95% confidence intervals [3]: 2.85 (2.20-4.40) mg/ml
24 hr LC95 ± 95% confidence intervals ([3]; listed as eryngial): 2.85 mg/mL
48 hr LC50 ± 95% confidence intervals ([3]; 48 hr in vitro): 0.50 (0.39-0.58) mg/ml
48 hr LC95 ± 95% confidence intervals ([3]; 48 hr in vitro): 1.14 (0.95-1.56) mg/ml
48 hr LC95 ± 95% confidence intervals [3, 12]: 2.31 mg/mL
24 hr LC95 ± 95% confidence intervals [4]: 0.45 (0.38-0.55) mg/ml
24 hr LC95 ± 95% confidence intervals ([4]; listed as eryngial): 0.45 mg/mL
48 hr LC95 ± 95% confidence intervals [4]: 0.31 (0.26-0.43) mg/ml
48 hr LC95 ± 95% confidence intervals ([4]; listed as eryngial): 0.31 mg/mL
24 hr LC50 ± 95% confidence intervals ([5]; 24 hr in vitro): 1.19 (0.96-1.40) mg/ml
24 hr LC95 ± 95% confidence intervals ([5]; 24 hr in vitro): 3.12 (2.57-4.16) mg/ml
24 hr LC95 ± 95% confidence intervals ([5]; 24 hr in vitro, listed as eryngial): 3.12 mg/mL
48 hr LC50 ± 95% confidence intervals ([5]; 48 hr in vitro): 0.76 (0.63-0.87) mg/ml
48 hr LC95 ± 95% confidence intervals ([5]; 48 hr in vitro): 2.31 (1.87-3.26) mg/ml
48 hr LC95 ± 95% confidence intervals [5, 12]: 1.02 mg/mL
24 hr LC95 ± 95% confidence intervals [6]: 2.91 (2.22-4.69) mg/ml
24 hr LC95 ± 95% confidence intervals ([6]; listed as eryngial): 2.91 mg/mL
48 hr LC50 ± 95% confidence intervals ([6]; 48 hr in vitro): 0.68 (0.62-0.75) mg/ml
48 hr LC95 ± 95% confidence intervals ([6]; 48 hr in vitro): 1.02 (0.91-1.20) mg/ml
48 hr LC95 ± 95% confidence intervals [6, 12]: 1.14 mg/mL
